Reference: PubChem BioAssay (NCI)
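Interpolation was linear, between the two tested concentrations surrounding the appropriate level; five concentrations were tested over 48 hours in 96-well plates. Abbreviation: GI50, concentration required for 50% inhibition of growth. TGI: concentration producing complete growth inhibition.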

Experiments:
Assay in all cases: growth of human tumour cells (NCI), 48 h
[1] = system: 786-0 renal
[2] = system: HL-60(TB) leukemia
[3] = system: HS 578T breast
[4] = system: KM12 colon
[5] = system: MDA-MB-231 breast
[6] = system: NCI-H23 lung
[7] = system: NCI/ADR-RES ovarian
[8] = system: OVCAR-4 ovarian
[9] = system: SNB-19 CNS
[10] = system: HCT-15 colon

SMILES | GI50 [1] | TGI [1] | GI50 [2] | TGI [2] | GI50 [3] | TGI [3] | GI50 [4] | TGI [4] | GI50 [5] | TGI [5] | GI50 [6] | GI50 [7] | TGI [7] | GI50 [8] | TGI [8] | GI50 [9] | TGI [9] | TGI [10] | TGI [6] | GI50 [10]
COc1cccc(-c2nc(-c3ccc(NC(=O)C(C)C)cc3)[nH]c2-c2ccnc(Br)c2)c1 | 1.3 µM | > 100 µM | 1.56 µM | 5.24 µM | 0.548 µM | 3.93 µM | 2.96 µM | > 100 µM | 4.09 µM | > 100 µM | 2.88 µM | 3.03 µM | > 100 µM | 3.54 µM | > 100 µM | 3.76 µM | > 100 µM |  |  | 
CC(C)(C)OC(=O)N[C@H]1CC2(C=C(Cl)C(=O)C(Cl)=C2)OC1=O |  | 28.6 µM |  | 6.53 µM |  | 75.5 µM |  | 32 µM |  | 33.8 µM |  |  |  |  | 32.5 µM |  | > 100 µM | 34.9 µM | 33.7 µM | 
COc1cc2c3c(n(C)c(=O)c2cc1OC)-c1cc2c(cc1/C3=C\CCCN)OCO2 | 1.23 µM | 5.02 µM |  |  | 24.7 µM | 87.6 µM | 11 µM | 84.8 µM | 5.09 µM | 31.5 µM | 8.07 µM | 14.5 µM | 74.4 µM | 17.9 µM | 52.7 µM | 18.7 µM | > 100 µM | 15.5 µM | > 100 µM | 3.18 µM
COC(OC)C(C)CC(=O)N(C)C (stereo not given) |  | > 100 µM |  | > 100 µM |  |  |  | > 100 µM |  |  |  |  |  |  | > 100 µM |  | > 100 µM | > 100 µM |  | 
CCOC(=O)C(=C=C=C(c1ccccc1)c1ccccc1)C(=O)OCC |  | 32 µM |  | 38.5 µM |  |  |  | 46.1 µM |  |  |  |  |  |  | 33.7 µM |  | 55.4 µM | 49.1 µM | > 100 µM | 
Cc1ccccc1S(=O)(=O)OC1NS(=O)(=O)c2ccccc21 (stereo not given) |  | > 100 µM |  |  |  | > 100 µM |  | > 100 µM |  | > 100 µM |  |  | > 100 µM |  | > 100 µM |  | > 100 µM | > 100 µM | > 100 µM | 
CC1(C)C2CCC(=O)C1CC2 (stereo not given) |  | > 100 µM |  | > 100 µM |  | > 100 µM |  | > 100 µM |  | > 100 µM |  |  | > 100 µM |  |  |  | > 100 µM | > 100 µM | > 100 µM | 
Cc1ccc(NC(=O)c2cc3cc(N=Nc4ccccc4C(=O)O)ccc3oc2=O)cc1 |  | > 100 µM |  | 69.4 µM |  |  |  | > 100 µM |  |  |  |  |  |  |  |  | > 100 µM | > 100 µM | > 100 µM | 
OCC#Cc1ccccc1C#Cc1ccccc1 | 14.6 µM | 27.7 µM |  |  | 18.3 µM | 43.7 µM | 10.8 µM | 22.9 µM | 3.26 µM | 16.4 µM | 13.7 µM | 14.8 µM | 30.8 µM | 17 µM | 45.2 µM | 20.6 µM | 38.7 µM | 24.8 µM | 27.6 µM | 11.5 µM
Cn1cnc([N+](=O)[O-])c1Sc1nc2ccccc2[nH]1 |  | > 100 µM |  | > 100 µM |  |  |  | 48.4 µM |  |  |  |  |  |  | > 100 µM |  |  | 33.1 µM | 48.4 µM | 
